US20150005288A1, “SUBSTITUTED PHENYLIMIDAZOPYRAZOLES AND USE THEREOF” (Bayer Intellectual Property GmbH, priority 2012, published 2015)

Target: T1, intracellular domain of human Tie2 (GST fusion protein) (Homo sapiens, UniProt Q02763)
T1 construct: intracellular domain of human Tie2 (amino acids 776-1124); made in house; host or cells: Baculovirus-infected insect cells (Hi5)
Assay: Tie2 kinase assay (Tie2-TR-FRET)
Assay type: biochemical
Details: ATP concentration 1 mM, in some cases means of several independent determinations
Description: The Tie2-inhibitory activity of the substances according to the invention was determined with the aid of one of the Tie2-TR-FRET assays described in the sections below at an ATP concentration of 1 mM (TR-FRET=Time-Resolved Fluorescence Resonance Energy Transfer):
The enzyme used was a recombinant fusion protein of glutathione S-transferase (GST) and the intracellular domain of human Tie2 (amino acids 776-1124) which was expressed in Baculovirus-infected insect cells (Hi5) and was purified by affinity chromatography on glutathione-Sepharose. Alternatively, it is also possible to use commercially available GST-His6-Tie2 fusion protein (ProQinase GmbH, Freiburg im Breisgau, Germany). The substrate used for the kinase reaction was the biotinylated peptide biotin-Ahx-[…] (C-terminus in amide form) which is commercially available (for example from Biosyntan, Berlin, Germany).
For the assay, 50 nl of a 100-fold concentrated solution of the respective test substance in DMSO were pipetted into a black low-volume 384-well microtitre plate (Greiner Bio-One, Frickenhausen, Germany) 2 μl of a solution of the Tie2 fusion protein in assay buffer [50 mM HEPES/HCl pH 7, 10 mM MgCl2, 2.5 mM MnCl2, 1 mM dithiothreitol, 0.01% (v/v) Nonidet P-40, 0.1% (w/v) bovine serum albumin (BSA), 1× Complete EDTA-free protease inhibitor mixture (Roche)] were added, and the mixture was incubated for 15 min to allow pre-binding of the substance to the enzyme prior to the kinase reaction. The kinase reaction was then started by adding 3 μl of a solution of adenosine triphosphate (ATP, 1.67 mM→final concentration in 5 μl assay volume=1 mM) and substrate (1.67 μM→final concentration in 5 μl assay volume=1 μM) in assay buffer, and the resulting mixture was incubated for a reaction time of 60 min at 22° C. The concentration of the Tie2 fusion protein was adapted to the respective activity of the enzyme and adjusted such that the assay was carried out in the linear range. Typical concentrations were in the range of 30 ng/ml.
The reaction was stopped by addition of 5 μl of a solution of TR-FRET detection reagents [200 nM streptavidin-XL665 and 2 nM PT66-Eu chelate, a europium chelate-labelled anti-phosphotyrosine antibody (Perkin-Elmer); alternatively, it is also possible to use PT66-Tb cryptate (Cisbio Bioassays, Codolet, France)] in aqueous EDTA solution[90 mM EDTA, 0.28% (w/v) bovine serum albumin (BSA) in 50 mM HEPES pH 7.5]. The resulting mixture was incubated at 22° C. for 1 h to allow formation of the complex of the biotinylated phosphorylated substrate and the detection reagents. The amount of phosphorylated substrate was then determined by measuring the resonance energy transfer from PT66-Eu chelate to streptavidin-XL665. To this end, the fluorescence emissions at 620 nm and 665 nm after excitation at 350 nm were measured in a TR-FRET measuring instrument (for example Viewlux, Perkin-Elmer). The ratio of the emissions at 665 nm and at 620 nm was taken as a measure of the amount of phosphorylated substrate.
Usually, the test substance in question was tested on the same microtitre plate at […] different concentrations in the range from 20 μM to 0.073 nM (for example at 20 μM, 5.7 μM, 1.6 μM, 0.47 μM, 0.13 μM, 38 nM, 11 nM, 3.1 nM, 0.89 nM, 0.25 nM and 0.073 nM) in duplicate for each concentration. The dilution series were prepared prior to the assay at the stage of the 100-fold concentrated solution by serial dilution (the exact concentrations may vary depending on the pipettors used in each case). IC50 values were calculated using a 4-parameter fit, with the aid of inhouse software.
Table 1 below lists the IC50 values from this assay for individual working examples (in some cases as means of several independent individual determinations): […]

T1 sequence (Q02763 776-1124): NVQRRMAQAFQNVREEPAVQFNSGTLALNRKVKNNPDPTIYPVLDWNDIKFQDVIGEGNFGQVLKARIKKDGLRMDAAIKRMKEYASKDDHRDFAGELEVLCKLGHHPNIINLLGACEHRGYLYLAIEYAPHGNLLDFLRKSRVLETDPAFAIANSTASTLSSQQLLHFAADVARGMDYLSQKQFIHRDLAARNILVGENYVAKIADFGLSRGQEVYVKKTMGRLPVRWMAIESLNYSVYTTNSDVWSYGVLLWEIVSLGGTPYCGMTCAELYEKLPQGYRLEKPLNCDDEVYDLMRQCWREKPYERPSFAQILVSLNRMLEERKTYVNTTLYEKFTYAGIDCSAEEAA

Structure (SMILES)	IC50 [nM]
Cc1ccc(NC(=O)c2cc(Cl)cc(S(F)(F)(F)(F)F)c2)cc1-n1ccn2nc(-c3cccnc3)cc12 [Example 27, 3-Chloro-N-{4-methyl-3-[6-(pyridin-3-yl)-1H-imidazo[1,2-b]pyrazol-1-yl]phenyl}-5-(pentafluoro-λ^6-sulphanyl)benzamide]	3.1
Cc1cc(C)cc(C(=O)Nc2ccc(C)c(-n3ccn4nc(-c5cccnc5)cc34)c2)c1 [Example 52, 3,5-Dimethyl-N-{4-methyl-3-[6-(pyridin-3-yl)-1H-imidazo[1,2-b]pyrazol-1-yl]phenyl}benzamide]	230
COc1cc(C(=O)Nc2ccc(C)c(-n3ccn4nc(-c5cccnc5)cc34)c2)cc(S(F)(F)(F)(F)F)c1 [Example 21, 3-Methoxy-N-{4-methyl-3-[6-(pyridin-3-yl)-1H-imidazo[1,2-b]pyrazol-1-yl]phenyl}-5-(pentafluoro-λ^6-sulphanyl)benzamide]	2.1
CCCOc1cccc(C(=O)Nc2ccc(C)c(-n3ccn4nc(-c5cccnc5)cc34)c2)c1 [Example 61, N-{4-Methyl-3-[6-(pyridin-3-yl)-1H-imidazo[1,2-b]pyrazol-1-yl]phenyl}-3-propoxybenzamide]	260
Cc1cc(C)c(-n2ccn3nc(-c4cccnc4)cc23)cc1NC(=O)c1cccc(OC(C)(C)C)c1 [Example 134, 3-tert-Butoxy-N-{2,4-dimethyl-5-[6-(pyridin-3-yl)-1H-imidazo[1,2-b]pyrazol-1-yl]phenyl}-benzamide]	55
O=C(Nc1ccc(Cl)c(-n2ccn3nc(-c4cccnc4)cc23)c1)c1cccc(S(F)(F)(F)(F)F)c1 [Example 96, N-{4-Chloro-3-[6-(pyridin-3-yl)-1H-imidazo[1,2-b]pyrazol-1-yl]phenyl}-3-(pentafluoro-λ^6-sulphanyl)benzamide]	47
Cc1ccc(NC(=O)c2cc(N3CCN(C)CC3)cc(C(F)(F)F)c2)cc1-n1ccn2nc(-c3cccnc3)cc12 [Example 41, 3-(4-Methylpiperazin-1-yl)-N-{4-methyl-3-[6-(pyridin-3-yl)-1H-imidazo[1,2-b]pyrazol-1-yl]-phenyl}-5-(trifluoromethyl)benzamide]	35
Cc1ccc(NC(=O)c2ccc(Cl)c(N3CCCCC3)c2)cc1-n1ccn2nc(-c3cccnc3)cc12 [Example 58, 4-Chloro-N-{4-methyl-3-[6-(pyridin-3-yl)-1H-imidazo[1,2-b]pyrazol-1-yl]phenyl}-3-(piperidin-1-yl)benzamide]	330
Cc1cc(C)c(-n2ccn3nc(-c4cccnc4)cc23)cc1NC(=O)c1cccc(C(C)(C)F)c1 [Example 142, N-{2,4-Dimethyl-5-[6-(pyridin-3-yl)-1H-imidazo[1,2-b]pyrazol-1-yl]phenyl}-3-(2-fluoropropan-2-yl)benzamide]	0.9
COCCOCc1cc(C(=O)Nc2cc(-n3ccn4nc(-c5cccnc5)cc34)c(C)cc2C)cc(S(F)(F)(F)(F)F)c1 [Example 155, N-{2,4-Dimethyl-5-[6-(pyridin-3-yl)-1H-imidazo[1,2-b]pyrazol-1-yl]phenyl}-3-[(2-methoxy-ethoxy)methyl]-5-(pentafluoro-λ^6-sulphanyl)benzamide]	0.7
Cc1ccc(NC(=O)c2ccnc(N3CCCCC3)c2)cc1-n1ccn2nc(-c3cccnc3)cc12 [Example 68, N-{4-Methyl-3-[6-(pyridin-3-yl)-1H-imidazo[1,2-b]pyrazol-1-yl]phenyl}-2-(piperidin-1-yl)-pyridine-4-carboxamide]	71
Cc1cc(C(=O)Nc2cc(-n3ccn4nc(-c5cccnc5)cc34)c(C)cc2C)cc(S(F)(F)(F)(F)F)c1 [Example 111, N-{2,4-Dimethyl-5-[6-(pyridin-3-yl)-1H-imidazo[1,2-b]pyrazol-1-yl]phenyl}-3-methyl-5-(pentafluoro-λ^6-sulphanyl)benzamide]	0.7
Cc1ccc(NC(=O)c2cc(N(C)CCCN(C)C)cc(C(F)(F)F)c2)cc1-n1ccn2nc(-c3cccnc3)cc12 [Example 42, 3-{[3-(Dimethylamino)propyl](methyl)amino}-N-{4-methyl-3-[6-(pyridin-3-yl)-1H-imidazo-[1,2-b]pyrazol-1-yl]phenyl}-5-(trifluoromethyl)benzamide]	1.5
Cc1ccc(NC(=O)c2cc(O)cc(S(F)(F)(F)(F)F)c2)cc1-n1ccn2nc(-c3cccnc3)cc12 [Example 20, 3-Hydroxy-N-{4-methyl-3-[6-(pyridin-3-yl)-1H-imidazo[1,2-b]pyrazol-1-yl]phenyl}-5-(pentafluoro-λ^6-sulphanyl)benzamide]	3.1
Cc1ccc(NC(=O)c2ccnc(N3CCCC3)c2)cc1-n1ccn2nc(-c3cccnc3)cc12 [Example 67, N-{4-Methyl-3-[6-(pyridin-3-yl)-1H-imidazo[1,2-b]pyrazol-1-yl]phenyl}-2-(pyrrolidin-1-yl)-pyridine-4-carboxamide]	57
COc1cc(C(=O)Nc2ccc(C)c(-n3cc(C)n4nc(-c5cn[nH]c5)cc34)c2)cc(S(F)(F)(F)(F)F)c1 [Example 13, 3-Methoxy-N-{4-methyl-3-[3-methyl-6-(1H-pyrazol-4-yl)-1H-imidazo[1,2-b]pyrazol-1-yl]-phenyl}-5-(pentafluoro-λ^6-sulphanyl)benzamide]	1.3
N#Cc1cc(C(=O)Nc2cccc(-n3ccn4nc(-c5cccnc5)cc34)c2F)cc(S(F)(F)(F)(F)F)c1 [Example 81, 3-Cyano-N-{2-fluoro-3-[6-(pyridin-3-yl)-1H-imidazo[1,2-b]pyrazol-1-yl]phenyl}-5-(pentafluoro-λ^6-sulphanyl)benzamide]	435
CCOCCOc1cccc(C(=O)Nc2cc(-n3ccn4nc(-c5cccnc5)cc34)c(C)cc2C)c1 [Example 135, N-{2,4-Dimethyl-5-[6-(pyridin-3-yl)-1H-imidazo[1,2-b]pyrazol-1-yl]phenyl}-3-(2-ethoxyethoxy)-benzamide]	607
COc1ccc(NC(=O)c2cc(Br)cc(S(F)(F)(F)(F)F)c2)cc1-n1ccn2nc(-c3cccnc3)cc12 [Example 98, 3-Bromo-N-{4-methoxy-3-[6-(pyridin-3-yl)-1H-imidazo[1,2-b]pyrazol-1-yl]phenyl}-5-(pentafluoro-λ^6-sulphanyl)benzamide]	595
Cc1cc(C)c(-n2ccn3nc(-c4cncnc4)cc23)cc1NC(=O)c1cc(C#N)cc(S(F)(F)(F)(F)F)c1 [Example 166, 3-Cyano-N-{2,4-dimethyl-5-[6-(pyrimidin-5-yl)-1H-imidazo[1,2-b]pyrazol-1-yl]phenyl}-5-(pentafluoro-λ^6-sulphanyl)benzamide]	0.3
COc1cccc(C(=O)Nc2cc(-n3ccn4nc(-c5cccnc5)cc34)c(C)cc2C)c1 [Example 131, N-{2,4-Dimethyl-5-[6-(pyridin-3-yl)-1H-imidazo[1,2-b]pyrazol-1-yl]phenyl}-3-methoxybenzamide]	252
Cc1ccc(NC(=O)c2cc(Br)cc(S(F)(F)(F)(F)F)c2)cc1-n1ccn2nc(-c3cncs3)cc12 [Example 175, 3-Bromo-N-{4-methyl-3-[6-(1,3-thiazol-5-yl)-1H-imidazo[1,2-b]pyrazol-1-yl]phenyl}-5-(pentafluoro-λ^6-sulphanyl)benzamide]	3.2
Cc1cc(C)c(-n2ccn3nc(-c4cccnc4)cc23)cc1NC(=O)c1cccc(C(C)(C)C(F)(F)F)c1 [Example 139, N-{2,4-Dimethyl-5-[6-(pyridin-3-yl)-1H-imidazo[1,2-b]pyrazol-1-yl]phenyl}-3-(1,1,1-trifluoro-2-methylpropan-2-yl)benzamide]	0.5
